Experiments:
TEV protease = target: T1, TEV protease (Tobacco etch virus, UniProt P04517); assay: Effect of additives on TEV protease cleavage measured by fluorescence polarization; assay type: biochemical; conditions: At3g16990 in pVP15 substrate, 0.5 μM TEV protease, pH 8.0, ca. 22° C.; increasing additive concentrations
T1 construct: TEV Protease, 0.5 μM
Description: The following series of Examples exemplify the efficacy of using the disclosed invention in measuring protease cleavage in the presence of various potentially interfering compounds. Briefly, each reaction comprised mixing three components: 1) a mixture of labeled and unlabeled protease substrates; 2) TEV protease; and 3) the potentially interfering additive. The results are presented graphically in FIGS. 3-14 The reaction buffer contained the following components (final concentrations noted):
Each stated additive as shown in FIGS. 3-14 was added at the stated concentrations. The TEV protease was added to each reaction last, just prior to placing the reactions into the photometer. The reactions were followed in real-time, at ambient temperature (ca. 22° C.). Fluorescence anisotropy was measured at the time points noted in FIGS. 3-14.
The following figures present the fluorescence data for each of the stated additives: FIG. 3: urea (M), FIG. 4: sucrose concentration (M), FIG. 5: sodium dodecylsulfate (SDS) (wt/vol %), FIG. 6: sodium chloride (NaCl) (M), FIG. 7: guanidium hydrochloride (M), FIG. 8: glycine concentration (wt/vol %), FIG. 9: glycerol concentration (vol/vol %), FIG. 10: ethanol concentration (vol/vol %), FIG. 11: ethylene glycol concentration (vol/vol %), FIG. 12: dimethylsulfoxide (DMSO) (vol/vol %), FIG. 13: calcium chloride (CaCl2) (M), and FIG. 14: arginine (wt/vol %).
Fluorescence anisotropy was measured using a Tecan 384 Ultra plate spectrofluorimeter. Excitation was at 485 nm (25 nm bandpass) and emission was measured at 525 nm (20 nm bandpass). Anisotropy measurements were made at 2 to 5 min intervals for 5 hours. The observed anisotropy is the sum of the anisotropy of the individual fluorescent components, or robs=Σfiri, where robs, is the observed anisotropy, fi is the fractional fluorescence intensity of component i, and ri is the anisotropy of component i. See J. Lakowicz, “Principles of fluorescence spectroscopy,” Kluwer Academic/Plenum Publishers, New York, 1999. For a two-state system with the fluorophore attached to either the intact fusion protein or to the small peptide produced by proteolysis, the fractional extent of reaction is given by ξ=(rf−robs)/(rf−rc), where rf is the fluorescence anisotropy of the intact fusion protein and rc is the fluorescence anisotropy of small peptide. This treatment assumes that there is no difference in the fluorescence intensity of the fluorophore attached to either the fusion protein or the small peptide, and this is justified by the observation that there was no significant change in total fluorescence intensity as the reactions proceeded.

[1] = system: substrate 21-F (His6-tetraCys-X-MBP); assay: Fluorescence anisotropy proteolysis assay with substrate 21-F; assay type: biochemical, E. coli; conditions: initial rate by fluorescence anisotropy, normalized to the rate of the protease with its preferred cognate substrate
Description: (§1) All protease substrates were expressed in E. coli Rosetta pLacI Rare to provide compensation for rare codons (see Kirienko et al. (2004) Biochemistry (Mosc) 69:527-535; available commercially from Novagen, a wholly-owned subsidiary of EMD Biosciences, Inc., Madison, Wis.). The expression was done in 2-L PET bottles (Millard et al. (2003) Protein Expr. Purif. 29:311-320). The protein purification followed typical IMAC purification procedures (see Sambrook & Russell, supra) including elution in an imidazole gradient from 0-350 mM. After SDS-PAGE analysis, appropriate fractions were pooled and desalted into 20 mM phosphate, pH 7.5, containing 100 mM NaCl and 0.3 mM TCEP. […]
(§2) Protease assays were conducted using a combination of 20 μM unlabeled and 40 nM labeled protease substrates unless noted otherwise. […] This decreased the amount of time between mixing and measurement to less than three minutes and allowed the fluorescence anisotropy measured at the first time point to closely approximate the anisotropy of the intact fusion protein. […]
(§3) Fluorescence anisotropy was measured using a Tecan 384 Ultra plate spectrofluorimeter. Excitation was at 485 nm (25 nm bandpass) and emission was measured at 525 nm (20 nm bandpass). […] See J. Lakowicz, “Principles of fluorescence spectroscopy,” Kluwer Academic/Plenum Publishers, New York, 1999. […]

[2] = system: substrate 22-F (His6-tetraCys-X-MBP); assay: Fluorescence anisotropy proteolysis assay with substrate 22-F; assay type: biochemical, E. coli; conditions: for Relative rate of reaction, substrate 22F: initial rate by fluorescence anisotropy, normalized to the rate of the protease with its preferred cognate substrate
Description: (§4) All protease substrates were expressed in E. coli Rosetta pLacI Rare to provide compensation for rare codons (see Kirienko et al. (2004) Biochemistry (Mosc) 69:527-535; available commercially from Novagen, a wholly-owned subsidiary of EMD Biosciences, Inc., Madison, Wis.). The expression was done in 2-L PET bottles (Millard et al. (2003) Protein Expr. Purif. 29:311-320). The protein purification followed typical IMAC purification procedures (see Sambrook & Russell, supra) including elution in an imidazole gradient from 0-350 mM. After SDS-PAGE analysis, appropriate fractions were pooled and desalted into 20 mM phosphate, pH 7.5, containing 100 mM NaCl and 0.3 mM TCEP. Proteins were concentrated to a final concentration of 300-600 μM using centrifugal concentrators. Glycerol (50% v/v) was added to all protease substrates except 26-F and frozen at −20° C. The Arabidopsis targets At3g03410 (expressed from pVP14) and At3g16990 (expressed from pVP15) were flash frozen as drops in liquid nitrogen and stored at −80° C.
(§5) A 20% molar excess of the tetraCys reagent was incubated overnight (˜12 h) with protein (10-100 μg) at room temperature in 20 mM phosphate, pH 7.5, containing 100 mM NaCl, 0.3 mM TCEP, and 1 mM β-mercaptoethanol. After the labeling reaction, unincorporated fluorophore was removed by two successive cycles of 10-fold dilution and concentration using centrifugal concentrators.
Protease assays were conducted using a combination of 20 μM unlabeled and 40 nM labeled protease substrates unless noted otherwise. TEV protease reactions were conducted in 20 mM Tris-HCl, pH 8.0, containing 100 mM NaCl, 0.3 mM TCEP, 1 mM β-mercaptoethanol, and 5 mM EDTA. Reactions with thrombin, enterokinase, and Factor Xa were performed in the buffer supplied by the manufacturer. Trypsin reactions were carried out in the buffer supplied for thrombin. Assays were carried out in black Cliniplate 384 well plates in a 40 μL reaction volume or in black Greiner 384 well plates using an 80 μL reaction volume. […] This decreased the amount of time between mixing and measurement to less than three minutes and allowed the fluorescence anisotropy measured at the first time point to closely approximate the anisotropy of the intact fusion protein. […]
Fluorescence anisotropy was measured using a Tecan 384 Ultra plate spectrofluorimeter. Excitation was at 485 nm (25 nm bandpass) and emission was measured at 525 nm (20 nm bandpass). […] The observed anisotropy is the sum of the anisotropy of the individual fluorescent components, or robs=Σfiri, where robs, is the observed anisotropy, fi is the fractional fluorescence intensity of component i, and ri is the anisotropy of component i. See J. Lakowicz, “Principles of fluorescence spectroscopy,” Kluwer Academic/Plenum Publishers, New York, 1999. For a two-state system with the fluorophore attached to either the intact fusion protein or to the small peptide produced by proteolysis, the fractional extent of reaction is given by ξ=(rf−robs)/(rf−rc), where rf is the fluorescence anisotropy of the intact fusion protein and rc is the fluorescence anisotropy of small peptide. This treatment assumes that there is no difference in the fluorescence intensity of the fluorophore attached to either the fusion protein or the small peptide, and this is justified by the observation that there was no significant change in total fluorescence intensity as the reactions proceeded. […]

[3] = system: substrate 23-F (His6-tetraCys-X-MBP); assay: Fluorescence anisotropy proteolysis assay with substrate 23-F; assay type: biochemical, E. coli; conditions: initial rate by fluorescence anisotropy, normalized to the rate of the protease with its preferred cognate substrate
Description: as §1, §2, §3

[4] = system: substrate 24-F (His6-tetraCys-X-MBP); assay: Fluorescence anisotropy proteolysis assay with substrate 24-F; assay type: biochemical, E. coli; conditions: initial rate by fluorescence anisotropy, normalized to the rate of the protease with its preferred cognate substrate
Description: as §1, §2, §3

[5] = system: substrate 25-F (His6-tetraCys-X-MBP); assay: Fluorescence anisotropy proteolysis assay with substrate 25-F; assay type: biochemical, E. coli; conditions: for Relative rate of reaction, substrate 25F: initial rate by fluorescence anisotropy, normalized to the rate of the protease with its preferred cognate substrate; for Specific reaction rate: substrate 25-F
Description: as §4, §5
as §2, with “otherwise. TEV protease reactions were conducted in 20 mM Tris-HCl, pH 8.0, containing 100 mM NaCl, 0.3 mM TCEP, 1 mM β-mercaptoethanol, and 5 mM EDTA.” for “otherwise.”
Fluorescence anisotropy was measured using a Tecan 384 Ultra plate spectrofluorimeter. Excitation was at 485 nm (25 nm bandpass) and emission was measured at 525 nm (20 nm bandpass). […] The observed anisotropy is the sum of the anisotropy of the individual fluorescent components, or robs=Σfiri, where robs, is the observed anisotropy, fi is the fractional fluorescence intensity of component i, and ri is the anisotropy of component i. See J. Lakowicz, “Principles of fluorescence spectroscopy,” Kluwer Academic/Plenum Publishers, New York, 1999. For a two-state system with the fluorophore attached to either the intact fusion protein or to the small peptide produced by proteolysis, the fractional extent of reaction is given by ξ=(rf−robs)/(rf−rc), where rf is the fluorescence anisotropy of the intact fusion protein and rc is the fluorescence anisotropy of small peptide. […]

[6] = system: substrate 26-F (His6-tetraCys-X-MBP); assay: Fluorescence anisotropy proteolysis assay with substrate 26-F; assay type: biochemical, E. coli; conditions: initial rate by fluorescence anisotropy, normalized to the rate of the protease with its preferred cognate substrate
Description: as §1, §2, §3

[7] = reactions with cognate His6-tetraCys-X-MBP substrates

T1 sequence (P04517 2038-2279): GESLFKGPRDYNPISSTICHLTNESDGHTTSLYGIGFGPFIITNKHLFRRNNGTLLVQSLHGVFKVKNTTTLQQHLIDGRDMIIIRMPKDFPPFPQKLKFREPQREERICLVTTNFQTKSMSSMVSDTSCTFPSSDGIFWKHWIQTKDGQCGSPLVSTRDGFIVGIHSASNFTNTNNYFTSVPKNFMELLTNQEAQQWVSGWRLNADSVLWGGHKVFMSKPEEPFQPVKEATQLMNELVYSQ

[Ca+2].[Cl-].[Cl-] [CaCl2, calcium chloride]
Effect of additive on fractional completion of the TEV protease cleavage reaction (TEV protease): little or no effect

NCC(=O)O [glycine]
Effect of additive on fractional completion of the TEV protease cleavage reaction (TEV protease): little or no effect

C[S+](C)[O-] [DMSO, dimethylsulfoxide]
Effect of additive on fractional completion of the TEV protease cleavage reaction (TEV protease): little or no effect

Cl.N=C(N)N [guanidium hydrochloride]
Effect of additive on fractional completion of the TEV protease cleavage reaction (TEV protease): considerable inhibition

Trypsin: protease tested on tetraCys-labeled His6-tetraCys-X-MBP substrates
Relative rate of reaction, substrate 21F [1]: 0.3
Relative rate of reaction, substrate 22F [2]: 1
Turnover number, fold greater than for TEV protease [2, 7]: 10 fold
Turnover number, fold greater than that observed for thrombin [2, 7]: 3 fold
Specific reaction rate ([2]; substrate 22-F, slope of initial rate versus protease concentration, errors two standard deviations): 760±60 moles substrate proteolyzed per mole of protease per hour
Relative rate of reaction, substrate 23F [3]: 0.1
Relative rate of reaction, substrate 24F [4]: 0.4
Relative rate of reaction, substrate 25F [5]: 0.5

Thrombin
Relative rate of reaction, substrate 21F [1]: 0.0
Relative rate of reaction, substrate 22F [2]: 0.4
Relative rate of reaction, substrate 23F [3]: −0.02
Relative rate of reaction, substrate 24F [4]: 0.0
Relative rate of reaction, substrate 25F [5]: 1
Specific reaction rate ([5]; slope of initial rate versus protease concentration, errors two standard deviations): 240±20 moles substrate proteolyzed per mole of protease per hour
Specific reaction rate ([5]; thrombin units adjusted for equivalence with enterokinase and Factor Xa unit definition): 0.20±0.02 nmole substrate proteolyzed per unit enzyme per hour
Relative rate of reaction, substrate 26F [6]: 0.0

NC(N)=O [urea]
Effect of additive on fractional completion of the TEV protease cleavage reaction (TEV protease): considerable inhibition

CCCCCCCCCCCCOS(=O)(=O)[O-].[Na+] [SDS, sodium dodecylsulfate]
Effect of additive on fractional completion of the TEV protease cleavage reaction (TEV protease): considerable inhibition

N=C(N)NCCC[C@H](N)C(=O)O [arginine]
Effect of additive on fractional completion of the TEV protease cleavage reaction (TEV protease): considerable inhibition

[Cl-].[Na+] [NaCl, sodium chloride]
Effect of additive on fractional completion of the TEV protease cleavage reaction (TEV protease): little or no effect

OCC(O)CO [glycerol]
Effect of additive on fractional completion of the TEV protease cleavage reaction (TEV protease): little or no effect

CCO [ethanol]
Effect of additive on fractional completion of the TEV protease cleavage reaction (TEV protease): considerable inhibition

OCCO [ethylene glycol]
Effect of additive on fractional completion of the TEV protease cleavage reaction (TEV protease): considerable inhibition

OC[C@H]1O[C@@](CO)(O[C@H]2O[C@H](CO)[C@@H](O)[C@H](O)[C@H]2O)[C@@H](O)[C@@H]1O [sucrose]
Effect of additive on fractional completion of the TEV protease cleavage reaction (TEV protease): little or no effect

Source: patent US20050227306A1, “Fluorescence polarization assay to detect protease cleavage” (priority 2003, published 2005)
